Reference: US4374149A, “α-{[(Arylalkyl)amino]alkyl}-4-hydroxy-3-(lower-alkylsul finyl)benzenemethanols” (Sterling Drug Inc., priority 1978, dated 1983)
Structures can show the parent of a compound that is named as a salt. Where two headings read alike, the source gives them in different places.

Legend:
systolic blood pressure = test: Antihypertensive activity, reduction in systolic blood pressure, single oral medication, unanesthetized spontaneous hypertensive rat; assay type: in vivo; conditions: P.O.; for Antihypertensive activity SH Rat AHD40 (single oral dose required to induce a 40 mm. average reduction in systolic blood pressure): unanesthetized SH rat
Method: Antihypertensive activity was determined on the basis of the observed reduction in systolic blood pressure measured according to the method of H. Kersten et al., J. Lab. and Clin. Med. 32, 1090 (1947) following a single oral medication in the unanesthetized spontaneous hypertensive rat described by Okamato et al., Japan Circulation J. 27, 282 (1963).
^a AHD40 = single oral dose required to induce a 40 mm. average

[1] = tested on: isolated rabbit ear artery; test: Vasodilator activity, perfusion pressure in isolated rabbit ear artery
From the text: (§1) Vasodilator activity was judged on the basis of observed reduction in perfusion pressure in the hind limb vasculature of the anesthetized dog determined according to the procedure described by Jandhyala et al., European J. Pharm. 17, 357 (1972), and also on the basis of percent reduction in perfusion pressure as measured in the isolated rabbit ear artery according to the method described by De LaLande et al., Aust. J. Exp. Biol. Med. Sci. 43, 639 (1965).
^d Vasodilation is expressed as the percentage reduction in perfusion

blood pressure = test: Antihypertensive activity, sustained lowering of blood pressure, repeated oral medication, unanesthetized trained renal hypertensive dog; assay type: in vivo; conditions: tid.
From the text: Antihypertensive activity was also judged on the basis of sustained reduction of blood pressure observed in the unanesthetized trained renal hypertensive dog following repeated oral medication according to the procedure described by Lape et al., Arch.
^b MED10 = minimum repeated oral daily dose required to effect a

β-adrenergic = β-adrenergic blocking activity, inhibition of isoproterenol-elicited heart rate increase in pentobarbitalized dog; assay type: in vivo; conditions: i.v.; for Dog β-blockade AED50 (approximate intravenous dose for 50% inhibition of isoproterenol-elicited heart rate increase): pentobarbitalized dog
Method: The β-adrenergic blocking activity was determined in the pentobarbitalized dog as judged by the ability of the test compound to inhibit the elevation in heart rate elicited by a 0.5 mcg./kg. i.v. injection of isoproterenol.
^e AED50 = approximate intravenous dose required to cause 50%

hind limb vasculature = test: Vasodilator activity, perfusion pressure in hind limb vasculature of anesthetized dog; assay type: in vivo; conditions: for Vasodilator activity Dog-Leg Perfusion AED50 (approximate intraarterial dose for 50 reduction in perfusion pressure): acetate salt; for Actual percentage reduction in perfusion pressure observed at the indicated dose: 0.025 mg./kg. intraarterial; for ED50: Canis lupus familiaris, read-out: Vasodilator activity Dog-Leg Perfusion AED50 (approximate intraarterial dose for 50 reduction in perfusion pressure)
From the text: as §1
^c AED50 = approximate intraarterial dose required to cause a 50

[2] = 1 × 10^-4 M, 100 µM, hydrochloride
[3] = intraarterial, anesthetized dog hind limb
[4] = 5 × 10^-5 M, 50 µM, acetate salt

## COc1ccc(CCCC(C)NCC(O)c2ccc(O)c([S+](C)[O-])c2)cc1 (stereo not drawn) [Example 21D, 4-hydroxy-α-<{[4-(4-methoxyphenyl)-1-methylbutyl]amino}methyl>-3-(methylsulfinyl)benzenemethanol acetate salt]
Systolic blood pressure
  Antihypertensive activity SH Rat AHD40 (single oral dose required to induce a 40 mm. average reduction in systolic blood pressure): 40.0 mg/kg
[1]; 1 × 10^-3 M, 1000 µM
  Rabbit Ear Artery vasodilation (percentage reduction in perfusion pressure from control level): 50%

## COc1ccc(CCC(C)NCC(O)c2ccc(O)c([S+](C)[O-])c2)cc1 (single isomer, unassigned) [Example 13C, 4-hydroxy-α-<{[3-(4-methoxyphenyl)-1-methylpropyl]amino}methyl>-3-(methylsulfinyl)benzenemethanol hydrochloride]
Blood pressure; 0.5 mg./kg., hydrochloride
  Actual percentage reduction in blood pressure observed at the indicated dose: 17%
Blood pressure; hydrochloride
  Renal Hypertensive Dog MED10 (minimum repeated oral daily dose for sustained lowering of blood pressure of 10% or greater): < 0.5 mg/kg
Systolic blood pressure; hydrochloride
  Antihypertensive activity SH Rat AHD40 (single oral dose required to induce a 40 mm. average reduction in systolic blood pressure): 3 mg/kg
β-adrenergic; hydrochloride
  Dog β-blockade AED50 (approximate intravenous dose for 50% inhibition of isoproterenol-elicited heart rate increase): 0.0125 mg/kg
[1]; [2]
  Rabbit Ear Artery vasodilation (percentage reduction in perfusion pressure from control level): 50%

## COc1ccc(CCC(C)NCC(O)c2ccc(O)c([S+](C)[O-])c2)cc1 (stereo not drawn) [Example 2H, 4-hydroxy-α-<{[3-(4-methoxyphenyl)-1-methylpropyl]amino}methyl>-3-(methylsulfinyl)benzenemethanol acetate salt]
Hind limb vasculature; [3]
  Vasodilator activity Dog-Leg Perfusion AED50 (approximate intraarterial dose for 50 reduction in perfusion pressure): 0.5 mg/kg
Systolic blood pressure; acetate salt
  Antihypertensive activity SH Rat AHD40 (single oral dose required to induce a 40 mm. average reduction in systolic blood pressure): 9.0 mg/kg
β-adrenergic; acetate salt
  Dog β-blockade AED50 (approximate intravenous dose for 50% inhibition of isoproterenol-elicited heart rate increase): 0.025 mg/kg
[1]; [4]
  Rabbit Ear Artery vasodilation (percentage reduction in perfusion pressure from control level): 20%

## COc1ccc(CCC(C)NCC(O)c2ccc(O)c([S+](C)[O-])c2)cc1 (single isomer, unassigned) [Example 10, 4-hydroxy-α-<{[3-(4-methoxyphenyl)-1-methylpropyl]amino}methyl>-3-(methylsulfinyl)benzenemethanol hydrochloride]
Blood pressure; 0.5 mg./kg., hydrochloride
  Actual percentage reduction in blood pressure observed at the indicated dose: 8%
Blood pressure; hydrochloride
  Renal Hypertensive Dog MED10 (minimum repeated oral daily dose for sustained lowering of blood pressure of 10% or greater): > 0.5 mg/kg
Systolic blood pressure; 16.0 mg./kg., hydrochloride
  Actual reduction in blood pressure observed at the indicated dose: -17 mm. Hg
Systolic blood pressure; hydrochloride
  Antihypertensive activity SH Rat AHD40 (single oral dose required to induce a 40 mm. average reduction in systolic blood pressure): > 16.0 mg/kg
β-adrenergic; 0.1 mg./kg.
  Actual percentage inhibition of heart rate increase above control level observed at the indicated dose: 23%
β-adrenergic; hydrochloride
  Dog β-blockade AED50 (approximate intravenous dose for 50% inhibition of isoproterenol-elicited heart rate increase): > 0.10 mg/kg
[1]; 2 × 10^-4 M, 200 µM
  Rabbit Ear Artery vasodilation (percentage reduction in perfusion pressure from control level): 50%

## COc1ccc(CCC(C)NCC(O)c2ccc(O)c([S+](C)[O-])c2)cc1 (single isomer, unassigned) [Example 12, 4-hydroxy-α-<{[3-(4-methoxyphenyl)-1-methylpropyl]amino}methyl>-3-(methylsulfinyl)benzenemethanol hydrochloride]
Blood pressure; 0.5 mg./kg., hydrochloride
  Actual percentage reduction in blood pressure observed at the indicated dose: 14%
Blood pressure; hydrochloride
  Renal Hypertensive Dog MED10 (minimum repeated oral daily dose for sustained lowering of blood pressure of 10% or greater): < 0.5 mg/kg
Systolic blood pressure; hydrochloride
  Antihypertensive activity SH Rat AHD40 (single oral dose required to induce a 40 mm. average reduction in systolic blood pressure): 5 mg/kg
β-adrenergic; hydrochloride
  Dog β-blockade AED50 (approximate intravenous dose for 50% inhibition of isoproterenol-elicited heart rate increase): 0.05 mg/kg
[1]; 2 × 10^-4 M, 200 µM
  Rabbit Ear Artery vasodilation (percentage reduction in perfusion pressure from control level): 50%

## COc1ccc(CCC(C)NCC(O)c2ccc(O)c([S+](C)[O-])c2)cc1 (single isomer, unassigned) [Example 11, 4-hydroxy-α-<{[3-(4-methoxyphenyl)-1-methylpropyl]amino}methyl>-3-(methylsulfinyl)benzenemethanol hydrochloride]
Blood pressure; 0.5 mg./kg., hydrochloride
  Actual percentage reduction in blood pressure observed at the indicated dose: 14%
Blood pressure; hydrochloride
  Renal Hypertensive Dog MED10 (minimum repeated oral daily dose for sustained lowering of blood pressure of 10% or greater): < 0.5 mg/kg
Systolic blood pressure; 16.0 mg./kg., hydrochloride
  Actual reduction in blood pressure observed at the indicated dose: -14 mm. Hg
Systolic blood pressure; hydrochloride
  Antihypertensive activity SH Rat AHD40 (single oral dose required to induce a 40 mm. average reduction in systolic blood pressure): > 16.0 mg/kg
β-adrenergic; hydrochloride
  Dog β-blockade AED50 (approximate intravenous dose for 50% inhibition of isoproterenol-elicited heart rate increase): 0.25 mg/kg
[1]; [2]
  Rabbit Ear Artery vasodilation (percentage reduction in perfusion pressure from control level): 38%

## COc1ccc(CCC(C)NCC(O)c2ccc(O)c([S+](C)[O-])c2)cc1 (stereo not drawn) [Example 6E, 4-hydroxy-α-<{[3-(4-methoxyphenyl)-1-methylpropyl]amino}methyl>-3-(methylsulfinyl)benzenemethanol acetate salt]
Hind limb vasculature
  Actual percentage reduction in perfusion pressure observed at the indicated dose: 25%
Hind limb vasculature; [3]
  Vasodilator activity Dog-Leg Perfusion AED50 (approximate intraarterial dose for 50 reduction in perfusion pressure): > 0.025 mg/kg
Systolic blood pressure; acetate salt
  Antihypertensive activity SH Rat AHD40 (single oral dose required to induce a 40 mm. average reduction in systolic blood pressure): 15.0 mg/kg
β-adrenergic; acetate salt
  Dog β-blockade AED50 (approximate intravenous dose for 50% inhibition of isoproterenol-elicited heart rate increase): 0.25 mg/kg
[1]; [4]
  Rabbit Ear Artery vasodilation (percentage reduction in perfusion pressure from control level): 58%

## COc1ccc(CCC(C)NCC(O)c2ccc(O)c([S+](C)[O-])c2)cc1 (stereo not drawn) [Example 5F, 4-hydroxy-α-<{[3-(4-methoxyphenyl)-1-methylpropyl]amino}methyl>-3-(methylsulfinyl)benzenemethanol]
Systolic blood pressure
  Antihypertensive activity SH Rat AHD40 (single oral dose required to induce a 40 mm. average reduction in systolic blood pressure): 4.0 mg/kg
β-adrenergic; 0.25 mg./kg.
  Actual percentage inhibition of heart rate increase above control level observed at the indicated dose: 70%
β-adrenergic
  Dog β-blockade AED50 (approximate intravenous dose for 50% inhibition of isoproterenol-elicited heart rate increase): < 0.25 mg/kg
[1]; 5 × 10^-5 M, 50 µM
  Rabbit Ear Artery vasodilation (percentage reduction in perfusion pressure from control level): 50%

## COc1ccc(CCC(C)NCC(O)c2ccc(O)c([S+](C)[O-])c2)cc1 (stereo not drawn) [Example 9D, 4-hydroxy-α-<{[3-(4-methoxyphenyl)-1-methylpropyl]amino}methyl>-3-(methylsulfinyl)benzenemethanol acetate salt]
Hind limb vasculature
  Actual percentage reduction in perfusion pressure observed at the indicated dose: 25%
Hind limb vasculature; [3]
  Vasodilator activity Dog-Leg Perfusion AED50 (approximate intraarterial dose for 50 reduction in perfusion pressure): > 0.025 mg/kg
Systolic blood pressure; acetate salt
  Antihypertensive activity SH Rat AHD40 (single oral dose required to induce a 40 mm. average reduction in systolic blood pressure): 20.0 mg/kg
β-adrenergic; acetate salt
  Dog β-blockade AED50 (approximate intravenous dose for 50% inhibition of isoproterenol-elicited heart rate increase): 0.0125 mg/kg
[1]; [4]
  Rabbit Ear Artery vasodilation (percentage reduction in perfusion pressure from control level): 61%

## COc1ccc(CCC(C)NCC(O)c2ccc(O)c([S+](C)[O-])c2)cc1 (stereo not drawn) [Example 4C, 4-hydroxy-α-<{[3-(4-methoxyphenyl)-1-methylpropyl]amino}methyl>-3-(methylsulfinyl)benzenemethanol acetate salt]
Hind limb vasculature; [3]
  Vasodilator activity Dog-Leg Perfusion AED50 (approximate intraarterial dose for 50 reduction in perfusion pressure): 0.5 mg/kg
Systolic blood pressure; 20 mg./kg.
  Actual reduction in blood pressure observed at the indicated dose: -33 mm. Hg
Systolic blood pressure; acetate salt
  Antihypertensive activity SH Rat AHD40 (single oral dose required to induce a 40 mm. average reduction in systolic blood pressure): > 20.0 mg/kg
β-adrenergic; acetate salt
  Dog β-blockade AED50 (approximate intravenous dose for 50% inhibition of isoproterenol-elicited heart rate increase): ~0.5 mg/kg
[1]; 1 × 10^-4 M, 100 µM, acetate salt
  Rabbit Ear Artery vasodilation (percentage reduction in perfusion pressure from control level): 10%

## COc1ccc(CCC(C)NCC(O)c2ccc(O)c([S+](C)[O-])c2)cc1 (stereo not drawn) [Example 5G, 4-hydroxy-α-<{[3-(4-methoxyphenyl)-1-methylpropyl]amino}methyl>-3-(methylsulfinyl)benzenemethanol]
[1]; 1 × 10^-4 M, 100 µM
  Rabbit Ear Artery vasodilation (percentage reduction in perfusion pressure from control level): 71%

## COc1ccc(CC(C)NCC(O)c2ccc(O)c([S+](C)[O-])c2)cc1OC (stereo not drawn) [Example 16C, α-<{[2-(3,4-dimethoxyphenyl)-1-methylethyl]amino}methyl>-4-hydroxy-3-(methylsulfinyl)benzenemethanol acetate salt]
Hind limb vasculature
  ED50: 0.5 mg/kg
Systolic blood pressure
  Antihypertensive activity SH Rat AHD40 (single oral dose required to induce a 40 mm. average reduction in systolic blood pressure): 15.0 mg/kg
β-adrenergic; 0.1 mg./kg.
  Actual percentage inhibition of heart rate increase above control level observed at the indicated dose: 38%
β-adrenergic
  Dog β-blockade AED50 (approximate intravenous dose for 50% inhibition of isoproterenol-elicited heart rate increase): > 0.1 mg/kg
[1]; 5 × 10^-5 M, 50 µM
  Rabbit Ear Artery vasodilation (percentage reduction in perfusion pressure from control level): 75%

## COc1ccc(CCCNCC(O)c2ccc(O)c([S+](C)[O-])c2)cc1 (stereo not drawn) [Example 20C, 4-hydroxy-α-<{[3-(4-methoxyphenyl)propyl]amino}methyl>-3-(methylsulfinyl)benzenemethanol acetate salt]
Blood pressure
  Renal Hypertensive Dog MED10 (minimum repeated oral daily dose for sustained lowering of blood pressure of 10% or greater): > 0.125 mg/kg
Blood pressure; 0.125 mg./kg.
  Actual percentage reduction in blood pressure observed at the indicated dose: 0%
Hind limb vasculature; [3]
  ED50: 0.5 mg/kg
Systolic blood pressure
  Antihypertensive activity SH Rat AHD40 (single oral dose required to induce a 40 mm. average reduction in systolic blood pressure): 7.0 mg/kg
β-adrenergic; 0.1 mg./kg.
  Actual percentage inhibition of heart rate increase above control level observed at the indicated dose: 67%
β-adrenergic
  Dog β-blockade AED50 (approximate intravenous dose for 50% inhibition of isoproterenol-elicited heart rate increase): < 0.1 mg/kg
[1]; concentration not given
  Rabbit Ear Artery vasodilation (in words): constrictor

## CC(=O)O.C[S+]([O-])c1cc(C(O)CNC(C)(C)Cc2ccccc2)ccc1O (stereo not drawn) [Example 14D, α-{[(1,1-dimethyl-2-phenylethyl)amino]-methyl}-4-hydroxy-3-(methylsulfinyl)benzenemethanol acetate salt]
Hind limb vasculature; [3]
  ED50: 0.5 mg/kg
Systolic blood pressure
  Antihypertensive activity SH Rat AHD40 (single oral dose required to induce a 40 mm. average reduction in systolic blood pressure): 20.0 mg/kg
β-adrenergic; 1.0 mg./kg.
  Actual percentage inhibition of heart rate increase above control level observed at the indicated dose: 87%
β-adrenergic
  Dog β-blockade AED50 (approximate intravenous dose for 50% inhibition of isoproterenol-elicited heart rate increase): < 1.0 mg/kg
[1]; 1 × 10^-6 M, 1 µM
  Rabbit Ear Artery vasodilation (percentage reduction in perfusion pressure from control level): 29%
